Read-outs that look alike come from different tables or passages of the source.
Tests used:
S. typhosa [1] = experiment: Agar dilution MIC in absence of soap, S. typhosa; type: cell-based; settings: read-out: Minimum growth inhibitory concentration, S. typhosa
Procedure: (§1) The growth-inhibitory activity of the below-indicated compounds against some microorganisms most relevant to the human skin was determined by standard agar dilution techniques to provide the data given in following Table 1.
(§2) In Table 1, the first column gives the chemical structures of the test compounds, while the additional columns give the names of the test organisms and the minimum inhibitory concentration in parts per million (p.p.m.) of the compounds listed for 100% growth inhibition against the particular microorganisms indicated. […] For each p.p.m. of test compound, 50 p.p.m. of Ivory soap was also present in the culture medium for part A of Table 1, while in part B of Table 1, the culture medium was free of any additive other than the test compound. The data for compounds 13 through 16 of part B of Table 1 were taken from Cannon U.S. Pat. No. 3,207,660 while those for compounds 17 and 18 were taken from trade literature.

S. aureus [2] = experiment: Agar dilution MIC in absence of soap, S. aureus; type: cell-based; settings: Staphylococcus aureus; read-out: Minimum growth inhibitory concentration, S. aureus
Procedure: as §1, §2

P. aeruginosa [3] = experiment: Agar dilution MIC in absence of soap, P. aeruginosa; type: cell-based; settings: Pseudomonas aeruginosa; read-out: Minimum growth inhibitory concentration, P. aeruginosa
Procedure: as §1, §2

P. aeruginosa [4] = settings: absence of soap, 13-16 from Cannon U.S. Pat. No. 3,207,660, 17-18 from trade literature, cited from earlier work
S. aureus [5] = settings: absence of soap; 13-16 from Cannon U.S. Pat. No. 3,207,660, 17-18 from trade literature; cited from earlier work
mice = settings: 12-15 from U.S. Pat. No. 3,207,660, 17, 18 from trade literature, cited from earlier work
S. typhosa [6] = settings: absence of soap; 17-18 from trade literature; cited from earlier work

SMILES | MIC (S. typhosa [1]) [mg/L] | MIC (S. aureus [2]) [mg/L] | MIC (P. aeruginosa [3]) [mg/L] | Minimum growth inhibitory concentration, P. aeruginosa (P. aeruginosa [4]) | Minimum growth inhibitory concentration, P. aeruginosa (P. aeruginosa [4]; listed as Compound 18 (Table 1)) [ppm] | Minimum growth inhibitory concentration, S. aureus (S. aureus [5]) [ppm] | Oral LD50 (mice) (mice) | Oral LD50 (mice) (mice; listed as Compound 17 (Table 2)) [mg/kg] | Minimum growth inhibitory concentration, S. typhosa (S. typhosa [6]) [ppm]
COc1ccc([I+]c2cccc(C(F)(F)F)c2)cc1 [Compound 11 (Table 1)] | 100 | 10 | 500 | – | – | – | – | – | –
FC(F)(F)c1cccc([I+]c2cccs2)c1 [Compound 12 (Table 1)] | 10 | < 1 | 50 | – | – | – | – | – | –
Oc1cc(Cl)ccc1Oc1ccc(Cl)cc1Cl [Irgasan] | – | – | – | more than 300 ppm | > 300 | 1 | 4,000 mg/kg | 4000 | 1

— patent publication US3944498A, “Germicidal detergent containing a thienyliodonium salt” (The Dow Chemical Company, priority 1973, dated 1976)
